Legend:
[1] = system: HPV16 E7 mRNA; assay: EGF-mediated induction of HPV16 E7 mRNA in CaSki cells (Northern blot); type: cell-based; conditions: for EGF-mediated induction of HPV16 E7 mRNA (Northern blot): Background Example 5: EGF 10 nanograms/ml, 50 or 100 μM sulindac sulfide, 15 μM ciglitazone, 15 μM 15d-PGJ2; for EGF-mediated induction of HPV16 E7 (Northern blot, mRNA): Background Example 6: EGF 10 nanograms/ml, 100 μM NSAID, 25 μM 15d-PGJ2
Description: Epidermal growth factor at 10 nanograms/ml was added to CaSki cells (3×10^6 in a 10 cm diameter dish) together with 50 μM sulindac sulfide or 100 μM sulindac sulfide or 15 μM ciglitazone or 15 μM 15d-PGJ2.
Northern blot testing was carried out for HPV16 E7 mRNA.
Epidermal growth factor (EGF) at 10 nanograms/ml was incubated with CaSki cells (3×10^6 in a 10 cm diameter dish) and 100 μM ibuprofen, 100 μM piroxicam, 100 μM S-naproxen, 100 μM aspirin, 100 μM sulindac sulfone, 100 μM sulindac sulfide, 100 μM naproxen, 100 μM indomethacin, 100 μM flufenamic acid and for comparison purposes 25 μM 15d-PGJ2.

[2] = system: HPV mediated cutaneous warts; assay: Topical treatment of patient with HPV mediated cutaneous warts; type: in vivo, human; conditions: ointment containing 5%, twice a day, three months
Text: A child presents to a local dermatologist because of small cutaneous growths on the hand. A diagnosis of HPV mediated cutaneous warts is made. The patient is instructed to apply an ointment containing 5% rosiglitazone to the affected areas twice a day. […] The same results occur with an ointment containing 5% resveratrol instead of the ointment containing rosiglitazone.

[3] = system: HPV16 E6 mRNA; assay: Northern blotting for HPV16 E6 mRNA in CaSki cells; type: cell-based; conditions: for HPV16 E6 mRNA (Northern blot): Background Example 7: CaSki cells, 24 hours, curcumin 5 μM, resveratrol 15 μM, ciglitazone 20 μM, 15d-PGJ2 15 μM; for levels of HPV16 E6 mRNA (Northern blot): CaSki cells, 24 hours incubation, concentration series in μM
Description: (§1) Celebrex™ at concentrations of 0, 0.1, 0.25, 0.5, 1.0, 2.5 and 5.0 μM was incubated with CaSki cell (3.0×10^6 in a 10 cm diameter dish) for 24 hours.
Curcumin (5 μM), resveratrol (15 μM), ciglitazone (20 μM) or 15d-PGJ2 (15 μM) were incubated with CaSki cells (3×10^6 in a 10 cm diameter dish) for 24 hours.
Northern blot testing was carried our for HPV16 E6 mRNA.

[4] = system: HPV16; assay: Treatment of patient with metastasized cervical cancer; type: in vivo, human; conditions: 50 mg orally three times a day for 12 months plus radiation therapy after hysterectomy
Description: A person seeks gynecologic evaluation because of pelvic pain. On pelvic examination, a cervical mass is detected. […] The patient undergoes a hysterectomy along with resection of regional lymph nodes. […] HPV16 is detected. The patient is treated with a course of radiation therapy plus indomethacin 50 mg orally three times a day for 12 months. […] The indomethacin is discontinued.

[5] = system: HPV16 E7 protein; assay: Western blotting for HPV16 E7 protein in CaSki cells; type: cell-based; conditions: 24 hours incubation, concentration series in μM
Description: (§2) Ciglitazone was incubated with CaSki cells (prototypic cervical cancer cells known to be infected with HPV16). The number of CaSki cells was 3×10^6 in a 10 cm diameter dish. Incubation were carried out for 24 hours with 0, 1, 5, 10 and 20 μM ciglitazone.
(§3) Western blotting was carried out to determine levels of HPV16 E7 protein. […] Northern blotting was carried out to determine levels of HPV16 E7 mRNA. […] Nuclear run-off testing was carried out to determine level of gene transcription.
as §1

[6] = system: HPV16 E7 mRNA; assay: Northern blotting for HPV16 E7 mRNA in CaSki cells; type: cell-based; conditions: 24 hours incubation, concentration series in μM
Description: as §2, §3
NS-398 at concentrations of 0, 10, 20, 40, 60, 100, 250 and 500 μM was incubated with CaSki cells (3×10^6 in a 10 cm diameter dish) for 24 hours.
Northern blotting was carried out to determine HPV16 E7 mRNA levels in each case.

[7] = system: HPV16; assay: Treatment of patient with cervical intraepithelial neoplasia; type: in vivo, human; conditions: 25 mg orally each day for six months
Description: A person presents to their gynecologist for evaluation. […] On biopsy, the patient is found to have cervical intraepithelial neoplasia. HPV16 is detected. Treatment with Vioxx™ 25 mg orally each day is begun and given for six months. […] The Vioxx™ is discontinued with no recurrence of cervical intraepithelial neoplasia.

[8] = system: HPV16 upstream regulatory region (URR); assay: HPV16 upstream regulatory region luciferase reporter transfected into CaSki cells; type: cell-based; conditions: 24 hours, 0-25 μM, FIG. 1
Description: HPV16 upstream regulatory region (URR) ligated to luciferase gene transfected into CaSki cells is incubated for 24 hours with ciglitazone and with 15d-PGJ2 (in each case, concentration of 0 μM, 5 μM, 10 μM, 15 μM, 20 μM and 25 μM). […] Note that cells contain endogenous activator that drives expression of E7, and ciglitazone and 15d-PGJ2 are shown to inhibit the activation.

CSc1ccc(/C=C2/C(C)=C(CC(=O)O)c3cc(F)ccc32)cc1 [sulindac sulfide]
EGF-mediated induction of HPV16 E7 mRNA (Northern blot) [1]: inhibition | EGF-mediated induction of HPV16 E7 (Northern blot, mRNA) [1]: inhibition

Oc1ccc(C=Cc2cc(O)cc(O)c2)cc1 [resveratrol]
cutaneous warts after topical treatment [2]: same results | HPV16 E6 mRNA (Northern blot) [3]: downregulation

COc1ccc2c(c1)c(CC(=O)O)c(C)n2C(=O)c1ccc(Cl)cc1 [indomethacin]
repeat CAT scan, cervical cancer [4]: no evidence of disease | EGF-mediated induction of HPV16 E7 (Northern blot, mRNA) [1]: inhibition

CN1C(C(=O)Nc2ccccn2)=C(O)c2ccccc2S1(=O)=O [piroxicam]
EGF-mediated induction of HPV16 E7 (Northern blot, mRNA) [1]: not

NS(=O)(=O)c1ccc(-n2nc(C(F)(F)F)cc2-c2ccc(Cl)cc2)cc1 [SC-236]
levels of HPV16 E7 protein (Western blot) [5]: dose dependent suppression | levels of HPV16 E6 mRNA (Northern blot) [3]: dose dependent suppression

CS(=O)(=O)Nc1ccc([N+](=O)[O-])cc1OC1CCCCC1 [NS-398, N-[2-(cylohexyloxy)-4-nitrophenyl]-methanesulfonamide]
levels of HPV16 E7 mRNA (Northern blot) [6]: dose dependent suppression

O=C(O)c1ccccc1Nc1cccc(C(F)(F)F)c1 [flufenamic acid]
EGF-mediated induction of HPV16 E7 (Northern blot, mRNA) [1]: inhibition

CC1=C(CC(=O)O)c2cc(F)ccc2/C1=C\c1ccc(S(C)(=O)=O)cc1 [sulindac sulfone]
EGF-mediated induction of HPV16 E7 (Northern blot, mRNA) [1]: inhibition

COc1ccc(-n2nc(C(F)(F)F)cc2-c2ccc(Cl)cc2)cc1 [SC-560, 5-(4-chlorophenyl)-1-(4-methoxyphenyl)-3-(trifluoromethyl)-1H-pyrazole]
cervical intraepithelial neoplasia on repeat biopsy [7]: no evidence of cervical intraepithelial neoplasia | levels of HPV16 E7 protein (Western blot) [5]: suppression | levels of HPV16 E6 mRNA (Northern blot) [3]: suppression

CC(C)Cc1ccc(C(C)C(=O)O)cc1 (stereo not shown) [ibuprofen]
EGF-mediated induction of HPV16 E7 (Northern blot, mRNA) [1]: not

COc1ccc2cc([C@H](C)C(=O)O)ccc2c1 [naproxen]
EGF-mediated induction of HPV16 E7 (Northern blot, mRNA) [1]: inhibition

CS(=O)(=O)c1ccc(C2=C(c3ccccc3)C(=O)OC2)cc1 [Vioxx™, 3-(phenyl)-4-(4-(methylsulfonyl)phenyl)-2-(5H)-furanone]
cervical intraepithelial neoplasia on repeat biopsy [7]: no further evidence of cervical intraepithelial neoplasia

CC(=O)Oc1ccccc1C(=O)O [aspirin]
EGF-mediated induction of HPV16 E7 (Northern blot, mRNA) [1]: not

CS(=O)(=O)c1ccc(-c2cc(Br)sc2-c2ccc(F)cc2)cc1 [DuP-697, 5-bromo-2-(4-fluorophenyl)-3-(4-(methylsulfonyl)phenyl)thiophene]
levels of HPV16 E7 protein (Western blot) [5]: suppression | levels of HPV16 E6 mRNA (Northern blot) [3]: suppression

COc1cc(/C=C/C(=O)CC(=O)/C=C/c2ccc(O)c(OC)c2)ccc1O [curcumin]
HPV16 E6 mRNA (Northern blot) [3]: downregulation

COc1ccc2cc([C@H](C)C(=O)O)ccc2c1 [S-naproxen]
EGF-mediated induction of HPV16 E7 (Northern blot, mRNA) [1]: not

COc1ccc2c(c1)c(CC(=O)NCCc1ccccc1)c(C)n2C(=O)c1ccc(Cl)cc1 [N-(2-phenylethyl)-indomethacin amide]
levels of HPV16 E7 protein (Western blot) [5]: dose dependent suppression | levels of HPV16 E6 mRNA (Northern blot) [3]: dose dependent suppression

CS(=O)(=O)c1ccc(-n2nc(C(F)(F)F)cc2-c2ccc(F)cc2)cc1 [SC-58125, 4-[5-(4-fluorophenyl)-3-(trifluoromethyl)-1H-pyrazol-1-yl]benzenemethylsulfone]
levels of HPV16 E7 protein (Western blot) [5]: suppression | levels of HPV16 E6 mRNA (Northern blot) [3]: suppression

CCCCCCCOC(=O)Cc1c(C)n(C(=O)c2ccc(Cl)cc2)c2ccc(OC)cc12 [Indomethacin heptyl ester]
levels of HPV16 E7 protein (Western blot) [5]: dose dependent suppression | levels of HPV16 E6 mRNA (Northern blot) [3]: dose dependent suppression

CCCCC/C=C/C=C1/C(=O)C=C[C@@H]1C/C=C\CCCC(=O)O [15d-PGJ2, 15-deoxy-Δ12,14-prostaglandin J2]
luciferase activity of HPV16 upstream regulatory region [8]: dose dependent inhibition | EGF-mediated induction of HPV16 E7 mRNA (Northern blot) [1]: inhibition | EGF-mediated induction of HPV16 E7 (Northern blot, mRNA) [1]: inhibition | HPV16 E6 mRNA (Northern blot) [3]: downregulation

NS(=O)(=O)c1ccc(-n2nc(C(F)(F)F)cc2-c2ccccc2)cc1 [4-[5-Phenyl-3-(trifluoromethyl)-1H-pyrazol-1-yl]benzenesulfonamide]
levels of HPV16 E7 protein (Western blot) [5]: suppression | levels of HPV16 E6 mRNA (Northern blot) [3]: suppression

Cc1ccc(-c2cc(C(F)(F)F)nn2-c2ccc(S(N)(=O)=O)cc2)cc1 [Celebrex™, 4-[5-(4-methylphenyl)-3-(trifluoromethyl)-1H-pyrazol-1-yl]benzenesulfonamide]
levels of HPV16 E7 protein (Western blot) [5]: dose dependent suppression | levels of HPV16 E6 mRNA (Northern blot) [3]: dose dependent suppression
